Measurements as given in patent publication US20140309244A1, “NOVEL MICROBIOCIDES” (SYNGENTA PARTICIPATIONS AG, priority 2010, published 2014).

Columns and labels:
[1] = system: Puccinia recondita f. sp. tritici; test: Puccinia recondita f. sp. tritici / wheat / leaf disc preventative (brown rust); assay type: in vivo; conditions: foliar, wheat cv Kanzler leaf segments, inoculated 1 day after application, assessed 7-9 days after application, read-out: control of Puccinia recondita f. sp. tritici (percent disease control compared to untreated)
Experimental: Puccinia recondita f. sp. tritici/Wheat/Leaf Disc Preventative (Brown Rust) Wheat leaf segments cultivated variety (cv) Kanzler were placed on agar in 24-well plates and sprayed with formulated test compound diluted in water at an application rate of 200 ppm. The leaf disks were inoculated with a spore suspension of the fungus 1 day after application. The inoculated leaf segments were incubated at 19° C. and 75% relative humidity under a light regime of 12/12 h (light/dark) in a climate cabinet and the activity of a compound was assessed as percent disease control compared to untreated when an appropriate level of disease damage appears in untreated check leaf segments (7-9 days after application). […].103

[2] = system: Puccinia recondita f. sp. tritici; test: Puccinia recondita f. sp. tritici / wheat / leaf disc curative (brown rust); assay type: in vivo; conditions: foliar, wheat cv Kanzler leaf segments, applied 1 day after inoculation, assessed 6-8 days after application, read-out: control of Puccinia recondita f. sp. tritici (percent disease control compared to untreated)
Experimental: Puccinia recondita f. sp. tritici/Wheat/Leaf Disc Curative (Brown Rust): Wheat leaf segments cv Kanzler were placed on agar in 24-well plates. The leaf segments were inoculated with a spore suspension of the fungus. The plates were stored in darkness at 19° C. and 75% relative humidity. The formulated test compound diluted in water was applied at an application rate of 200 ppm 1 day after inoculation.

[3] = system: Phaeosphaeria nodorum (Septoria nodorum); test: Phaeosphaeria nodorum (Septoria nodorum) / wheat / leaf disc preventative (glume blotch); assay type: in vivo; conditions: Parastagonospora nodorum, foliar, wheat cv Kanzler leaf segments, inoculated 2 days after application, assessed 5-7 days after application, read-out: control of Phaeosphaeria nodorum (percent disease control compared to untreated)
[4] = system: Pyrenophora teres; test: Pyrenophora teres / barley / leaf disc preventative (net blotch); assay type: in vivo; conditions: foliar, barley cv Hasso leaf segments, inoculated two days after application, assessed 5-7 days after application, read-out: control of Pyrenophora teres (disease control compared to untreated)
[5] = system: Botryotinia fuckeliana (Botrytis cinerea); test: Botryotinia fuckeliana (Botrytis cinerea) / liquid culture (gray mould); assay type: cell-based; conditions: Vogels broth, 96-well plate, 24° C., 3-4 days after application, read-out: control of Botryotinia fuckeliana (inhibition of growth, photometric)
[6] = system: Glomerella lagenarium (Colletotrichum lagenarium); test: Glomerella lagenarium (Colletotrichum lagenarium) / liquid culture (anthracnose); assay type: cell-based; conditions: Colletotrichum orbiculare, PDB potato dextrose broth, 96-well plate, 24° C., 3-4 days after application, read-out: control of Glomerella lagenarium (inhibition of growth, photometric)
[7] = system: Mycosphaerella arachidis (Cercospora arachidicola); test: Mycosphaerella arachidis (Cercospora arachidicola) / liquid culture (early leaf spot); assay type: cell-based; conditions: PDB potato dextrose broth, 96-well plate, 24° C., 4-5 days after application, read-out: control of Mycosphaerella arachidis (inhibition of growth, photometric)
[8] = system: Mycosphaerella graminicola (Septoria tritici); test: Mycosphaerella graminicola (Septoria tritici) / liquid culture (Septoria blotch); assay type: cell-based; conditions: Zymoseptoria tritici, PDB potato dextrose broth, 96-well plate, 24° C., 4-5 days after application, read-out: control of Mycosphaerella graminicola (inhibition of growth, photometric)
[9] = system: Gaeumannomyces graminis; test: Gaeumannomyces graminis / liquid culture (take-all of cereals); assay type: cell-based; conditions: liquid culture of mycelial fragments, PDB potato dextrose broth, 96-well plate, 24° C., 4-5 days after application, read-out: control of Gaeumannomyces graminis (inhibition of growth, photometric)
[10] = system: Thanatephorus cucumeris (Rhizoctonia solani); test: Thanatephorus cucumeris (Rhizoctonia solani) / liquid culture (foot rot, damping-off); assay type: cell-based; conditions: liquid culture of mycelia fragments, PDB potato dextrose broth, 96-well plate, 24° C., 3-4 days after application, read-out: control of Thanatephorus cucumeris (inhibition of growth, photometric)
Experimental: Thanatephorus cucumeris (Rhizoctonia solani)/Liquid Culture (Foot Rot, Damping-Off): Mycelia fragments of a newly grown liquid culture of the fungus are directly mixed into nutrient broth (PDB potato dextrose broth). After placing a DMSO solution of the test compounds into a 96-well microtiter plate at an application rate of 200 ppm, the nutrient broth containing the fungal material was added. The test plates were incubated at 24° C. and the inhibition of growth was determined photometrically 3-4 days after application.

[11] = system: Monographella nivalis (Microdochium nivale); test: Monographella nivalis (Microdochium nivale) / liquid culture (foot rot cereals); assay type: cell-based; conditions: PDB potato dextrose broth, 96-well plate, 24° C., 4-5 days after application, read-out: control of Monographella nivalis (inhibition of growth, photometric)
Outline: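 Cryostored conidia in potato dextrose broth added to test compound in DMSO at 200 ppm. Incubated at 24° C; growth inhibition read photometrically 4-5 days after application.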

[12] = system: Blumeria graminis f. sp. tritici (Erysiphe graminis f. sp. tritici); test: Blumeria graminis f. sp. tritici (Erysiphe graminis f. sp. tritici) / wheat / leaf disc preventative (powdery mildew on wheat); assay type: in vivo; conditions: foliar, wheat cv. Kanzler leaf segments, inoculated 1 day after application, assessed 6-8 days after application, read-out: control of Blumeria graminis (percent disease control compared to untreated)
[13] = system: Magnaporthe grisea (Pyricularia oryzae); test: whole plant or invertebrate; assay type: in vivo; conditions: foliar, read-out: control of Magnaporthe grisea (percent disease control compared to untreated)

CO/N=C(\C)c1cccc(CCCO/N=C2\CCCc3cc4c(nc32)CCCC4)n1 [P.94]
≥ 80%: pest or weed control at 200 ppm [1] | pest or weed control at 200 ppm [2] | pest or weed control at 200 ppm [3] | pest or weed control at 200 ppm [4] | inhibition at 200 ppm [5] | inhibition at 200 ppm [6] | inhibition at 200 ppm [7] | inhibition at 200 ppm [8] | inhibition at 200 ppm [9] | inhibition at 200 ppm [10] | inhibition at 200 ppm [11] | pest or weed control at 200 ppm [12] | pest or weed control at 200 ppm [13]

CO/N=C(\C)c1cccc(CCCO/N=C2\CCCc3cc4ccccc4nc32)n1 [P.100]
≥ 80%: pest or weed control at 200 ppm [1] | pest or weed control at 200 ppm [2] | pest or weed control at 200 ppm [3] | pest or weed control at 200 ppm [4] | inhibition at 200 ppm [5] | inhibition at 200 ppm [6] | inhibition at 200 ppm [7] | inhibition at 200 ppm [8] | inhibition at 200 ppm [9] | inhibition at 200 ppm [10] | inhibition at 200 ppm [11] | pest or weed control at 200 ppm [12] | pest or weed control at 200 ppm [13]
